Data published in patent US20200016159A1, “N3-CYCLICALLY SUBSTITUTED THIENOURACILS AND USE THEREOF” (Bayer Aktiengesellschaft, priority 2016, published 2020).

Target: T1, human adenosine A2b receptor (Homo sapiens, UniProt P29275)
T1 sequence (P29275 1-332): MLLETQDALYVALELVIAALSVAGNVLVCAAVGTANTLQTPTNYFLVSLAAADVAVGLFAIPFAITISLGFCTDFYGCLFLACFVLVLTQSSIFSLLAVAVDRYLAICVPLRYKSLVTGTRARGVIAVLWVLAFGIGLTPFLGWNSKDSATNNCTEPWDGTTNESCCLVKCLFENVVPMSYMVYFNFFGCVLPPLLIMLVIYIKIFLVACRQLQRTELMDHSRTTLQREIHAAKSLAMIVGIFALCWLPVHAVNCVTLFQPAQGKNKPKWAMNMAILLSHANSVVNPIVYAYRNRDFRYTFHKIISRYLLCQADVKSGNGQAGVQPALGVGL
Experiment: Cellular in vitro reporter gene test for A2b receptor activity (antagonism of NECA)
Format: cell-based
Set-up: expressed in transfected cells; host or cells: CHO-K1 (Chinese hamster ovary) with CRE-luciferase reporter
Conditions: recombinant CHO-K1 cells, CRE-luciferase reporter, co-incubation with EC50 concentration of NECA, 3 hours
Method in brief: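 CHO-K1 cells expressing recombinant human A2b receptor plus a CRE-driven firefly luciferase reporter. Compounds co-incubated with NECA at its same-day EC50 concentration; luminescence read 3 hours after NECA addition. IC50 values, sometimes means of several determinations rounded to two significant figures.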

| Structure (SMILES) | IC50 |
| --- | --- |
| Cc1c(Cn2nc[nH]c2=O)sc2c1c(=O)n(C1(C)CC1)c(=O)n2CC1CC1(F)F (single isomer, unassigned) [Example 67, 1-[(2,2-Difluorocyclopropyl)methyl]-5-methyl-3-(1-methylcyclopropyl)-6-[(5-oxo-4,5-dihydro-1H-1,2,4-triazol-1-yl)methyl]thieno[2,3-d]pyrimidine-2,4(1H,3H)-dione] | 54 nM |
| Cc1c(Cn2nc[nH]c2=O)sc2c1c(=O)n(C1CC1)c(=O)n2CCCC#N [Example 212, 4-{3-Cyclopropyl-5-methyl-2,4-dioxo-6-[(5-oxo-4,5-dihydro-1H-1,2,4-triazol-1-yl)methyl]-3,4-dihydrothieno[2,3-d]pyrimidin-1 (2H)-yl}butanenitrile] | 240 nM |
| COCCn1c(=O)n(C2CCCC2)c(=O)c2c(C)c(CN3CCNC3=O)sc21 [Example 189, 3-Cyclopentyl-1-(2-methoxyethyl)-5-methyl-6-[(2-oxoimidazolidin-1-yl)methyl]thieno[2,3-d]pyrimidine-2,4(1H,3H)-dione] | 40 nM |
| Cc1c(CN2CCNC2=O)sc2c1c(=O)n(C1CC1C)c(=O)n2CC1CC(F)(F)C1 (single isomer, unassigned) [Example 254, 1-[(3,3-Difluorocyclobutyl)methyl]-5-methyl-3-(2-methylcyclopropyl)-6-[(2-oxoimidazolidin-1-yl)methyl]thieno[2,3-d]pyrimidine-2,4(1H,3H)-dione] | 7.2 nM |
| COC(=O)N=C1NCCN1Cc1sc2c(c1C)c(=O)n(C1CCCC1)c(=O)n2CCC(F)(F)F [Example 186, Methyl [1-{[3-cyclopentyl-5-methyl-2,4-dioxo-1-(3,3,3-trifluoropropyl)-1,2,3,4-tetrahydrothieno[2,3-d]pyrimidin-6-yl]methyl}imidazolidin-2-ylidene]carbamate] | 7.9 nM |
| CCC1CC1n1c(=O)c2c(C)c(CN3CCNC3=O)sc2n(CCOC)c1=O (single isomer, unassigned) [Example 301, 3-(2-Ethylcyclopropyl)-1-(2-methoxyethyl)-5-methyl-6-[(2-oxoimidazolidin-1-yl)methyl]thieno[2,3-d]pyrimidine-2,4(1H,3H)-dione] | 64 nM |
| COCCn1c(=O)n(C2CC2C(F)(F)F)c(=O)c2c(C)c(Cn3nc[nH]c3=O)sc21 (racemic) [Example 297, 1-(2-Methoxyethyl)-5-methyl-6-[(5-oxo-4,5-dihydro-1H-1,2,4-triazol-1-yl)methyl]-3-[2-(trifluoromethyl)cyclopropyl]thieno[2,3-d]pyrimidine-2,4(1H,3H)-dione] | 120 nM |
| Cc1c(CN2CCNC2=O)sc2c1c(=O)n([C@H]1C[C@@H]1C)c(=O)n2CC1CCC1 [Example 248, 1-(Cyclobutylmethyl)-5-methyl-3-[(1S,2S)-2-methylcyclopropyl]-6-[(2-oxoimidazolidin-1-yl)methyl]thieno[2,3-d]pyrimidine-2,4(1H,3H)-dione] | 1.2 nM |
| COCCn1c(=O)n(C2CC3(CCC3)C2)c(=O)c2c(C)c(CN3CCNC3=NC(=O)OC)sc21 [Example 181, Methyl [1-{[1-(2-methoxyethyl)-5-methyl-2,4-dioxo-3-(spiro[3.3]hept-2-yl)-1,2,3,4-tetrahydrothieno[2,3-d]pyrimidin-6-yl]methyl}imidazolidin-2-ylidene]carbamate] | 6.7 nM |
| COC(=O)N=C1NCCN1Cc1sc2c(c1C)c(=O)n(C1CC1C)c(=O)n2CCOC(F)(F)F (single isomer, unassigned) [Example 269, Methyl [1-({5-methyl-3-(2-methylcyclopropyl)-2,4-dioxo-1-[2-(trifluoromethoxy)ethyl]-1,2,3,4-tetrahydrothieno[2,3-d]pyrimidin-6-yl}methyl)imidazolidin-2-ylidene]carbamate] | 2 nM |
| Cc1c(CN2CCNC2=O)sc2c1c(=O)n(C1CC1C)c(=O)n2CCF (racemic) [Example 231, 1-(2-Fluoroethyl)-5-methyl-3-(2-methylcyclopropyl)-6-[(2-oxoimidazolidin-1-yl)methyl]thieno[2,3-d]pyrimidine-2,4(1H,3H)-dione] | 2.3 nM |
| COC(=O)N=C1NCCN1Cc1sc2c(c1C)c(=O)n(C1CC1C)c(=O)n2CCOC(F)(F)F (single isomer, unassigned) [Example 268, Methyl [1-({5-methyl-3-(2-methylcyclopropyl)-2,4-dioxo-1-[2-(trifluoromethoxy)ethyl]-1,2,3,4-tetrahydrothieno[2,3-d]pyrimidin-6-yl}methyl)imidazolidin-2-ylidene]carbamate] | 1.5 nM |
| Cc1c(CN2CCNC2=O)sc2c1c(=O)n(C1CC1C)c(=O)n2CCF (single isomer, unassigned) [Example 233, 1-(2-Fluoroethyl)-5-methyl-3-(2-methylcyclopropyl)-6-[(2-oxoimidazolidin-1-yl)methyl]thieno[2,3-d]pyrimidine-2,4(1H,3H)-dione] | 11 nM |
| Cc1c(CN2CCNC2=O)sc2c1c(=O)n(C1CC1C)c(=O)n2CC1CCOC1 (single isomer, unassigned) [Example 293, 5-Methyl-3-(2-methylcyclopropyl)-6-[(2-oxoimidazolidin-1-yl)methyl]-1-(tetrahydrofuran-3-ylmethyl)thieno[2,3-d]pyrimidine-2,4(1H,3H)-dione] | 12 nM |
| Cc1c(Cn2nc[nH]c2=O)sc2c1c(=O)n(C1CC1)c(=O)n2C [Example 2, 3-Cyclopropyl-1,5-dimethyl-6-[(5-oxo-4,5-dihydro-1H-1,2,4-triazol-1-yl)methyl]thieno[2,3-d]pyrimidine-2,4(1H,3H)-dione] | 81 nM |
| CO[C@H]1C[C@H](n2c(=O)c3c(C)c(CN4CCNC4=NC#N)sc3n(CCC(F)(F)F)c2=O)C1 [Example 145, [1-{[3-(trans-3-Methoxycyclobutyl)-5-methyl-2,4-dioxo-1-(3,3,3-trifluoropropyl)-1,2,3,4-tetrahydrothieno[2,3-d]pyrimidin-6-yl]methyl}imidazolidin-2-ylidene]cyanamide] | 23 nM |
| Cc1c(Cn2nc[nH]c2=O)sc2c1c(=O)n(C1CC1C)c(=O)n2CCOC(F)(F)F (single isomer, unassigned) [Example 277, 5-Methyl-3-(2-methylcyclopropyl)-6-[(5-oxo-4,5-dihydro-1H-1,2,4-triazol-1-yl)methyl]-1-[2-(trifluoromethoxy)ethyl]thieno[2,3-d]pyrimidine-2,4(1H,3H)-dione] | 3.9 nM |
| Cc1c(Cn2nc[nH]c2=O)sc2c1c(=O)n(C1CCC1)c(=O)n2CCC(F)(F)F [Example 114, 3-Cyclobutyl-5-methyl-6-[(5-oxo-4,5-dihydro-1H-1,2,4-triazol-1-yl)methyl]-1-(3,3,3-trifluoropropyl)thieno[2,3-d]pyrimidine-2,4(1H,3H)-dione] | 1.9 nM |
| COCCn1c(=O)n(C2CC(C)(C)C2)c(=O)c2c(C)c(CN3CCNC3=NC#N)sc21 [Example 170, [1-{[3-(3,3-Dimethylcyclobutyl)-1-(2-methoxyethyl)-5-methyl-2,4-dioxo-1,2,3,4-tetrahydrothieno[2,3-d]pyrimidin-6-yl]methyl}imidazolidin-2-ylidene]cyanamide] | 8.6 nM |
| Cc1c(CN2CCNC2=NC#N)sc2c1c(=O)n(C1CCCC1)c(=O)n2CCC(F)(F)F [Example 185, [1-{[3-Cyclopentyl-5-methyl-2,4-dioxo-1-(3,3,3-trifluoropropyl)-1,2,3,4-tetrahydrothieno[2,3-d]pyrimidin-6-yl]methyl}imidazolidin-2-ylidene]cyanamide] | 16 nM |
| Cc1c(CN2CCNC2=O)sc2c1c(=O)n(C1(C)CC1)c(=O)n2CC1CC1(F)F (single isomer, unassigned) [Example 65, 1-[(2,2-Difluorocyclopropyl)methyl]-5-methyl-3-(1-methylcyclopropyl)-6-[(2-oxoimidazolidin-1-yl)methyl]thieno[2,3-d]pyrimidine-2,4(1H,3H)-dione] | 36 nM |
| Cc1c(CN2CCNC2=O)sc2c1c(=O)n(C1CC1C)c(=O)n2CC(F)(F)F (racemic) [Example 237, 5-Methyl-3-(2-methylcyclopropyl)-6-[(2-oxoimidazolidin-1-yl)methyl]-1-(2,2,2-trifluoroethyl)thieno[2,3-d]pyrimidine-2,4(1H,3H)-dione] | 4.4 nM |
| Cc1c(Cn2nc[nH]c2=O)sc2c1c(=O)n([C@H]1C[C@@H]1C)c(=O)n2CCC(F)(F)F [Example 323, 5-Methyl-3-[(1S,2S)-2-methylcyclopropyl]-6-[(5-oxo-4,5-dihydro-1H-1,2,4-triazol-1-yl)methyl]-1-(3,3,3-trifluoropropyl)thieno[2,3-d]pyrimidine-2,4(1H,3H)-dione] | 3.1 nM |
| Cc1c(CN2CCNC2=O)sc2c1c(=O)n(C1CC1(C)C)c(=O)n2CCCF (racemic) [Example 97, 3-(2,2-Dimethylcyclopropyl)-1-(3-fluoropropyl)-5-methyl-6-[(2-oxoimidazolidin-1-yl)methyl]thieno[2,3-d]pyrimidine-2,4(1H,3H)-dione] | 26 nM |
| Cc1c(Cn2nc[nH]c2=O)sc2c1c(=O)n(C1CC1)c(=O)n2CCSC(F)(F)F [Example 213, 3-Cyclopropyl-5-methyl-6-[(5-oxo-4,5-dihydro-1H-1,2,4-triazol-1-yl)methyl]-1-{2-[(trifluoromethyl)sulfanyl]ethyl}thieno[2,3-d]pyrimidine-2,4(1H,3H)-dione] | 40 nM |
